Experimental data reported in patent US9796706B2, “Inhibitors of Jun N-terminal kinase” (IMAGO PHARMACEUTICALS, INC., priority 2009, dated 2017).
pIC50: −log10 of the molar value.

Columns and labels:
Type in all cases: biochemical
Settings in all cases: procedures of Example 14 (TR-FRET)
[1] = molecular target: JNK1 (Homo sapiens (Human), UniProt P45983); experiment: JNK1 TR-FRET kinase assay (Example 14)
Description: (§1) 14.3. Active JNK 1, 2 and 3 TR-FRET Assay
(§2) (1) Assay buffer #1 with 0.0025% Tween and 1 mM DTT was prepared using JNK buffer stock solution.
(§3) (2) Assay buffer #2 with 0.025% BSA was prepared using the assay buffer #1.
(§4) (3) Test compound solution preparation: 5× compound solution was prepared using assay buffer #1 with 5% DMSO. The compound solution (10 μl/well) was added to a 384-well plate (Corning, Cat No. 3654).
(§5) (4) aJNK1, 2 or 3 preparation: aJNK stock (100 μg/ml) at −80° C. was thawed on ice and an aJNK (1.6 ng/ml) solution was prepared using assay buffer #2. The aJNK solution (20 μl/well) was added to the plate and the plate was shaken. The enzyme was incubated with the compound at RT for 10 min. (5) ATP/substrate solution preparation: ATP and substrate stocks were thawed on ice. 2.5×ATP/substrate (e.g., 25 μM or 2.5 mM ATP/50 nM EPIW-1) was prepared using assay buffer #1. The ATP/substrate (20 μl/well) was added to the plate and the plate was shaken. The plate was incubated at RT for 15 min. Note: In an exemplary assay, the final ATP concentration was about 1 mM. (6) EDTA preparation: 30 mM EDTA was prepared using 0.5M EDTA stock and assay buffer #1. The EDTA (10 μl/well) was added to the plate to quench the enzyme reaction and the plate was shaken well. (7) Detection reagent preparation: Eu-63 and SA-XL stocks were thawed on ice. 4× Eu-63/SA-XL (2 nM Eu-63/9.4 nM SA-XL) was prepared using JNK detection buffer. The Eu-63/SA-XL solution (20 μl/well) was added to the plate and the plate was shaken. The plate was incubated at RT for 1 hr before reading the plate on LJL using ratiometric method named HTRF.
(§6) 14.4. Coupled JNK 1, 2 and 3 TR-FRET Assay
(§7) (1) Assay buffer with 0.0025% Tween, 0.01% BSA, and 1 mM DTT was prepared using JNK buffer stock solution.
(§8) (2) Test compound solution preparation: 5× compound solution, including EDTA background, was prepared using assay buffer with 5% DMSO. The compound solution (10 μl/well) was added to a 384-well plate (Corning, Cat No. 3654).
(§9) (3) uJNK1,2, or 3 activation reaction preparation: uJNK activation solution was prepared using assay buffer (1.6 ng/ml MKK4, 1.6 ng/ml MKK7, 16 ng/ml uJNK, and 20 uM ATP final). The uJNK activation solution (35 μl/well) was added to the plate, the plate was shaken, and the reaction mixture was incubated with compound at 30° C. for 60 min. (4) c-Jun substrate solution preparation: 50 nM EPIW-1, c-Jun peptide, was prepared using assay buffer (15 nM final). The EPIW-1 solution (15 μl/well) was added to the plate, the plate was shaken and incubated at 30° C. for 60 min. (5) EDTA preparation: 30 mM EDTA was prepared using 0.5M EDTA stock and assay buffer. The EDTA (10 μl/well) was added to the plate to quench the enzyme reaction and the plate was shaken well. (6) Detection reagent preparation: Eu-73 and SA-XL stocks were thawed on ice. 4× Eu-73/SA-XL (2 nM Eu-73/9.4 nM SA-XL) were prepared using JNK detection buffer. The Eu-73/SA-XL solution (20 μl/well) was added to the plate. The plate was shaken and incubated at RT for 1 hr before reading the plate on LJL using ratiometric method named HTRF.

[2] = molecular target: JNK2 (Homo sapiens (Human), UniProt P45984); experiment: JNK2 TR-FRET kinase assay (Example 14)
Description: as §1, §2, §3, §4, §5, §6, §7, §8, §9

[3] = molecular target: JNK3 (Homo sapiens (Human), UniProt P53779); experiment: JNK3 TR-FRET kinase assay (Example 14)
Description: as §1, §2, §3, §4, §5, §6, §7, §8, §9

Sequence of JNK1 (P45983 other isoform, or with tags, fused parts or gaps isoform P45983-2, species assumed): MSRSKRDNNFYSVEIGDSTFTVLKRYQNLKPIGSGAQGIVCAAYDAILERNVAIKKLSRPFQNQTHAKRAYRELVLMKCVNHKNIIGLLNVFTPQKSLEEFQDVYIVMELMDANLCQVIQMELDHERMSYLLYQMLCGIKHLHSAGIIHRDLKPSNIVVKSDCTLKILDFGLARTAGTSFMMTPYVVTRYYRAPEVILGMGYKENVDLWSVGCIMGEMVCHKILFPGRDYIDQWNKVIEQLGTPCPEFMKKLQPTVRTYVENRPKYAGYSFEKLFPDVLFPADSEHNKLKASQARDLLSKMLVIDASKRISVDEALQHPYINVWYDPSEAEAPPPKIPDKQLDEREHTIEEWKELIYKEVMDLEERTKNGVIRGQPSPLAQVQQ
Sequence of JNK2 (P45984 whole entry, species assumed): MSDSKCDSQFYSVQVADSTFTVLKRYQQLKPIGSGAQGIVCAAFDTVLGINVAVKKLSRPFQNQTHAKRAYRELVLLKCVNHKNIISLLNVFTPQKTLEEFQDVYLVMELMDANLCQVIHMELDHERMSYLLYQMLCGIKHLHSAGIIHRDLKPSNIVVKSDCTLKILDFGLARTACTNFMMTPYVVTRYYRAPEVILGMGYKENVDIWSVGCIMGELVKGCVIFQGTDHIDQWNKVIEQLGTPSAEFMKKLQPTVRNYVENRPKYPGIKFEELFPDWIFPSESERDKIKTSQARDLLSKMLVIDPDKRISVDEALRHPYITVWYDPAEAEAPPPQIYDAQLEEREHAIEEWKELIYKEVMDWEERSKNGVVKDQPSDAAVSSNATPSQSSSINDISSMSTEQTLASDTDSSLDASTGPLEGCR
Sequence of JNK3 (P53779 whole entry, species assumed): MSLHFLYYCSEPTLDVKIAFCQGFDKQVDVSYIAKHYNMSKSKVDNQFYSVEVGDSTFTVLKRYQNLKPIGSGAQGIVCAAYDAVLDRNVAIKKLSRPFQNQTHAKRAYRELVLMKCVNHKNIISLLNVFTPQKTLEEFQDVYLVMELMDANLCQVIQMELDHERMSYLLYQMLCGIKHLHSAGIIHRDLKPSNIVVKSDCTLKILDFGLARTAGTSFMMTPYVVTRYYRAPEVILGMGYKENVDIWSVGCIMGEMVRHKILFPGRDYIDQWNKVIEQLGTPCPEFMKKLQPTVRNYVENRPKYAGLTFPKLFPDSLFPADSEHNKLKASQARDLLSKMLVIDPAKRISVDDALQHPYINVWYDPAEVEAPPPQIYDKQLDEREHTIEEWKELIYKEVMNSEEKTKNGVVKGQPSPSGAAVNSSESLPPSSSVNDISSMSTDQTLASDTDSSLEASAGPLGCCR

Structure (SMILES) | pIC50 [1] | pIC50 [2] | pIC50 [3]
Cn1ccc(-c2sccc2NC(=O)Cc2cccc3ccccc23)n1 [N-(2-(1-methyl-1H-pyrazol-3-yl)thiophen-3-yl)-2-(naphthalen-1-yl)acetamide] | < 5.00 | < 4.30 | < 5.00
COc1ccc(CC(=O)Nc2ccsc2-c2nnc(C)o2)cc1 [2-(4-methoxyphenyl)-N-(2-(5-methyl-1,3,4-oxadiazol-2-yl)thiophen-3-yl)acetamide] | 5.00 to 7.00 | < 4.30 | 5.00 to 7.00
Cc1nc(-c2sccc2NC(=O)Cc2cccc3ccccc23)n(C)n1 [N-(2-(1,3-dimethyl-1H-1,2,4-triazol-5-yl)thiophen-3-yl)-2-(naphthalen-1-yl)acetamide] | < 5.00 | < 4.30 | < 5.00
Cc1cnc(-c2sccc2NC(=O)Cc2cccc3cnccc23)s1 [2-(isoquinolin-5-yl)-N-(2-(5-methylthiazol-2-yl)thiophen-3-yl)acetamide] | 5.00 to 7.00 | 5.00 to 7.00 | 5.00 to 7.00
COc1ccc(CC(=O)Nc2ccsc2-c2cn(C)cn2)cc1 [2-(4-methoxyphenyl)-N-(2-(1-methyl-1H-imidazol-4-yl)thiophen-3-yl)acetamide] | < 5.00 | < 4.30 | < 5.00
O=C(Cn1c(=O)ccc2cc(Br)ccc21)Nc1scc(Br)c1-c1nc[nH]n1 [2-(6-bromo-2-oxoquinolin-1(2H)-yl)-N-(4-bromo-3-(1H-1,2,4-triazol-3-yl)thiophen-2-yl)acetamide] | > 7.00 | > 7.00 | > 7.00
Cc1n[nH]c(-c2sccc2NC(=O)Cc2cccc3ccccc23)n1 [N-(2-(3-methyl-1H-1,2,4-triazol-5-yl)thiophen-3-yl)-2-(naphthalen-1-yl)acetamide] | 5.00 to 7.00 | 5.00 to 7.00 | 5.00 to 7.00
O=C(Cc1cccc2ccccc12)Nc1ccsc1-c1nnco1 [N-(2-(1,3,4-oxadiazol-2-yl)thiophen-3-yl)-2-(naphthalen-1-yl)acetamide] | 5.00 to 7.00 | < 5.00 | 5.00 to 7.00
Cc1n[nH]c(-c2sccc2NC(=O)Cc2ccc(N3CCCC3=O)cc2)n1 [N-(2-(3-methyl-1H-1,2,4-triazol-5-yl)thiophen-3-yl)-2-(4-(2-oxopyrrolidin-1-yl)phenyl)acetamide] | – | 5.00 to 7.00 | –
O=C(Cc1cccc2ccccc12)Nc1ccsc1-c1ccccn1 [2-(2-pyridyl)-3-(1-naphthylacetylamino)thiophene] | – | – | 5.00 to 7.00
COCn1nnc(-c2ccsc2NC(=O)Cc2ccc(OC)cc2)n1 [N-(3-(2-(methoxymethyl)-2H-tetrazol-5-yl)thiophen-2-yl)-2-(4-methoxyphenyl)acetamide] | < 4.30 | < 4.30 | < 4.30
O=C(Cc1cccc2cnccc12)Nc1scnc1-c1cscn1 [N-(4,4′-bithiazol-5-yl)-2-(isoquinolin-5-yl)acetamide] | > 7.00 | 5.00 to 7.00 | > 7.00
COc1ccc(CC(=O)Nc2ccsc2-c2ncco2)cc1 [2-(4-methoxyphenyl)-N-(2-(oxazol-2-yl)thiophen-3-yl)acetamide] | – | < 5.00 | –
Cc1noc(-c2sccc2NC(=O)Cc2cccc3ccccc23)n1 [N-(2-(3-methyl-1,2,4-oxadiazol-5-yl)thiophen-3-yl)-2-(naphthalen-1-yl)acetamide] | – | < 4.30 | –
COc1ccc(CC(=O)Nc2ccsc2-c2nc(C)n[nH]2)cc1 [2-(4-methoxyphenyl)-N-(2-(3-methyl-1H-1,2,4-triazol-5-yl)thiophen-3-yl)acetamide] | – | 5.00 to 7.00 | –
Cc1cc(-c2sccc2NC(=O)Cc2cccc3ccccc23)n[nH]1 [N-(2-(5-methyl-1H-pyrazol-3-yl)thiophen-3-yl)-2-(naphthalen-1-yl)acetamide] | – | < 4.30 | –
Cn1ncnc1-c1ncsc1NC(=O)Cc1cccc2cnccc12 [2-(isoquinolin-5-yl)-N-(4-(1-methyl-1H-1,2,4-triazol-5-yl)thiazol-5-yl)acetamide] | – | 5.00 to 7.00 | –
O=C(Cc1cccc2ccccc12)Nc1ccsc1-c1cc[nH]n1 [N-(2-(1H-pyrazol-3-yl)thiophen-3-yl)-2-(naphthalen-1-yl)acetamide] | – | < 4.30 | –
COc1ccc(CC(=O)Nc2sccc2-c2nn[nH]n2)cc1 [N-(3-(2H-tetrazol-5-yl)thiophen-2-yl)-2-(4-methoxyphenyl)-acetamide] | – | < 4.30 | –
O=C(Cc1ccc2c(c1)OCCO2)Nc1ccsc1-c1ncn[nH]1 [N-(2-(1H-1,2,4-triazol-5-yl)thiophen-3-yl)-2-(2,3-dihydrobenzo[b][1,4]dioxin-6-yl)acetamide] | – | 5.00 to 7.00 | –
COc1ccc(CC(=O)Nc2ccsc2-c2nc(N)n[nH]2)cc1 [N-(2-(3-amino-1H-1,2,4-triazol-5-yl)thiophen-3-yl)-2-(4-methoxyphenyl)acetamide] | – | 5.00 to 7.00 | –

Next, values leading:

pIC50 [1] | pIC50 [2] | pIC50 [3] | Structure (SMILES)
> 7.00 | > 7.00 | > 7.00 | N#Cc1ccc2c(ccc(=O)n2CC(=O)Nc2scc(Br)c2-c2ncn[nH]2)c1 [N-(4-bromo-3-(1H-1,2,4-triazol-5-yl)thiophen-2-yl)-2-(6-cyano-2-oxoquinolin-1(2H)-yl)acetamide]
> 7.00 | 5.00 to 7.00 | 5.00 to 7.00 | CC(C)c1n[nH]c(-c2c(Cl)csc2NC(=O)CN2C(=O)CCc3ncccc32)n1 [N-(4-chloro-3-(3-isopropyl-1H-1,2,4-triazol-5-yl)thiophen-2-yl)-2-(2-oxo-3,4-dihydro-1,5-naphthyridin-1(2H)-yl)acetamide]
5.00 to 7.00 | 5.00 to 7.00 | 5.00 to 7.00 | O=C(Cc1cc(C(F)(F)F)cc2ncccc12)Nc1scc(Br)c1-c1nnc[nH]1 [N-(4-bromo-3-(4H-1,2,4-triazol-3-yl)thiophen-2-yl)-2-(7-(trifluoromethyl)quinolin-5-yl)acetamide]
> 7.00 | > 7.00 | > 7.00 | N#Cc1ccc2c(ccc(=O)n2CC(=O)Nc2scc(Cl)c2-c2nc[nH]n2)c1 [N-(4-chloro-3-(1H-1,2,4-triazol-3-yl)thiophen-2-yl)-2-(6-cyano-2-oxoquinolin-1(2H)-yl)acetamide]
> 7.00 | > 7.00 | > 7.00 | N#Cc1ccc2ccc(=O)n(CC(=O)Nc3scc(Br)c3-c3ncn[nH]3)c2c1 [N-(4-bromo-3-(1H-1,2,4-triazol-5-yl)thiophen-2-yl)-2-(7-cyano-2-oxoquinolin-1(2H)-yl)acetamide]
> 7.00 | > 7.00 | > 7.00 | O=C(CN1C(=O)CCc2cc(C(F)(F)F)ccc21)Nc1scc(Br)c1-c1ncn[nH]1 [N-(4-bromo-3-(1H-1,2,4-triazol-5-yl)thiophen-2-yl)-2-(2-oxo-6-(trifluoromethyl)-3,4-dihydroquinolin-1(2H)-yl)acetamide]
– | – | 5.00 to 7.00 | Cc1nnc(-c2c(C)csc2NC(=O)Cc2ccc(-c3ccncc3)cc2)[nH]1 [N-(4-methyl-3-(5-methyl-4H-1,2,4-triazol-3-yl)thiophen-2-yl)-2-(4-(pyridin-4-yl)phenyl)acetamide]
– | 5.00 to 7.00 | 5.00 to 7.00 | O=C(Cc1cccc2cccnc12)Nc1scc(Br)c1-c1ncn[nH]1 [N-(4-bromo-3-(1H-1,2,4-triazol-5-yl)thiophen-2-yl)-2-(quinolin-8-yl)acetamide]
> 7.00 | – | > 7.00 | Cc1csc(NC(=O)CN2C(=O)CCc3ccccc32)c1-c1ncn[nH]1 [N-(4-methyl-3-(1H-1,2,4-triazol-5-yl)thiophen-2-yl)-2-(2-oxo-3,4-dihydroquinolin-1(2H)-yl)acetamide]
– | 5.00 to 7.00 | – | Cc1csc(NC(=O)Cc2cccc3ncccc23)c1-c1ncn[nH]1 [N-(4-methyl-3-(1H-1,2,4-triazol-5-yl)thiophen-2-yl)-2-(quinolin-5-yl)acetamide]
